Measured values from ChEMBL document CHEMBL1201862, “PubChem BioAssay data set” (2004).
Where “and” joins values, the source holds several entries; their conditions need not be identical. Equal entries are not always repeated.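 Exposure lasted 48 hours, with cells grown in 96-well plates and compounds tested at five concentrations. At the GI50, growth is halved.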 Calls of active or inactive are those of the source. Rule as the data show it: active = GI50 up to about 1.1 µM and inactive = higher.

Assays:
Experiment in all cases: DTP human tumour cell line panel, 48 h
786-0 = tested on: 786-0
A498 = tested on: A498
A549 = tested on: A549
ACHN = tested on: ACHN
COLO 205 = tested on: COLO 205
DU-145 = tested on: DU-145
EKVX = tested on: EKVX
HCC 2998 = tested on: HCC 2998
HCT-15 = tested on: HCT-15
HL-60 = tested on: HL-60
HOP-62 = tested on: HOP-62
HOP-92 = tested on: HOP-92
HT-29 = tested on: HT-29
Hs-578T = tested on: Hs-578T
IGROV-1 = tested on: IGROV-1
KM12 = tested on: KM12
M14 = tested on: M14
MDA-MB-231 = tested on: MDA-MB-231
MDA-MB-435 = tested on: MDA-MB-435
MOLT-4 = tested on: MOLT-4
Malme-3M = tested on: Malme-3M
NCI-H226 = tested on: NCI-H226
NCI-H23 = tested on: NCI-H23
NCI-H522 = tested on: NCI-H522
NCI/ADR-RES = tested on: NCI/ADR-RES
OVCAR-3 = tested on: OVCAR-3
OVCAR-4 = tested on: OVCAR-4
OVCAR-8 = tested on: OVCAR-8
PC-3 = tested on: PC-3
SF-539 = tested on: SF-539
SK-MEL-28 = tested on: SK-MEL-28
SK-MEL-2 = tested on: SK-MEL-2
SK-MEL-5 = tested on: SK-MEL-5
SN12C = tested on: SN12C
SNB-19 = tested on: SNB-19
SW-620 = tested on: SW-620
T47D = tested on: T47D
TK-10 = tested on: TK-10
U-251 = tested on: U-251
UACC-257 = tested on: UACC-257
UACC-62 = tested on: UACC-62
UO-31 = tested on: UO-31
CAKI-1 = tested on: CAKI-1
HCT-116 = tested on: HCT-116
K562 = tested on: K562
MCF7 = tested on: MCF7
NCI-H460 = tested on: NCI-H460
OVCAR-5 = tested on: OVCAR-5
RPMI-8226 = tested on: RPMI-8226
RXF 393 = tested on: RXF 393
SF-268 = tested on: SF-268
SF-295 = tested on: SF-295
SK-OV-3 = tested on: SK-OV-3
SNB-75 = tested on: SNB-75
SR = tested on: SR
CCRF-CEM = tested on: CCRF-CEM
LOX IMVI = tested on: LOX IMVI
MDA-N = tested on: MDA-N

For COc1ccccc1/C=C(/C)[N+](=O)[O-], the GI50 (786-0) was 1.37 µM (inactive) and 1.13 µM (inactive), the GI50 (A498) was 7.13 µM (inactive) and 5.14 µM (inactive) and the GI50 (A549) was 2.33 µM (inactive) and 2.98 µM (inactive). The GI50 (ACHN) was 2.17 µM (inactive) and 2.44 µM (inactive), the GI50 (COLO 205) was 3.05 µM (inactive) and 1.83 µM (inactive) and the GI50 (DU-145) was 1.02 µM (active) and 1.04 µM (active). The GI50 (EKVX) was 3.21 µM (inactive) and 4.49 µM (inactive), the GI50 (HCC 2998) was 1.48 µM (inactive) and 3.94 µM (inactive) and the GI50 (HCT-15) was 1960 nM and 2010 nM. For the same compound, the GI50 (HL-60) was 1.88 µM (inactive) and 1.21 µM (inactive), the GI50 (HOP-62) was 1.81 µM (inactive) and 3.37 µM (inactive) and the GI50 (HOP-92) was 2210 nM (inactive). For the same compound, the GI50 (HT-29) was 3.65 µM (inactive) and 3.44 µM (inactive), the GI50 (Hs-578T) was 4.55 µM (inactive) and 4.24 µM (inactive) and the GI50 (IGROV-1) was 2.17 µM (inactive) and 1.6 µM (inactive). The GI50 (KM12) was 2.96 µM (inactive) and 1.74 µM (inactive), the GI50 (M14) was 1.37 µM (inactive) and 1.21 µM (inactive) and the GI50 (MDA-MB-231) was 3.43 µM (inactive) and 4.86 µM (inactive). For the same compound, the GI50 (MDA-MB-435) was 3.15 µM (inactive) and 1.93 µM (inactive), the GI50 (MOLT-4) was 269 nM (active) and 255 nM (active) and the GI50 (Malme-3M) was 2.51 µM (inactive) and 1.85 µM (inactive). The GI50 (NCI-H226) was 2.02 µM (inactive) and 2.34 µM (inactive), the GI50 (NCI-H23) was 2.15 µM (inactive) and 2.2 µM (inactive) and the GI50 (NCI-H522) was 1.39 µM (inactive) and 1.19 µM (inactive). The GI50 (NCI/ADR-RES) was 3.44 µM (inactive) and 2.65 µM (inactive), the GI50 (OVCAR-3) was 1.32 µM (inactive) and 1.09 µM (active) and the GI50 (OVCAR-4) was 5.94 µM (inactive) and 3.86 µM (inactive). The GI50 (OVCAR-8) was 1.79 µM (inactive) and 2.12 µM (inactive), the GI50 (PC-3) was 2.79 µM (inactive) and 2.53 µM (inactive) and the GI50 (SF-539) was 1.77 µM (inactive) and 2.28 µM (inactive). The GI50 (SK-MEL-28) was 2.46 µM (inactive) and 2.19 µM (inactive), the GI50 (SK-MEL-2) was 1.99 µM (inactive) and 2.53 µM (inactive) and the GI50 (SK-MEL-5) was 2.07 µM (inactive) and 1.85 µM (inactive). The GI50 (SN12C) was 2.24 µM (inactive) and 1.98 µM (inactive), the GI50 (SNB-19) was 4.26 µM (inactive) and 2.33 µM (inactive) and the GI50 (SW-620) was 2.43 µM (inactive) and 2.02 µM (inactive). For the same compound, the GI50 (T47D) was 1.44 µM (inactive) and 1.04 µM (active), the GI50 (TK-10) was 2.06 µM (inactive) and 4.06 µM (inactive) and the GI50 (U-251) was 1.68 µM (inactive) and 1.79 µM (inactive). For the same compound, the GI50 (UACC-257) was 1.74 µM (inactive) and 1.77 µM (inactive), the GI50 (UACC-62) was 1.89 µM (inactive) and 1.58 µM (inactive) and the GI50 (UO-31) was 1.69 µM (inactive) and 1.72 µM (inactive).

In the case of O=C(c1ccccc1)c1c(C(F)(F)F)[n+]([O-])c2cc(F)c(F)cc2[n+]1[O-], the GI50 (786-0) was 525 nM (active), the GI50 (A498) was 2.56 µM (inactive) and the GI50 (A549) was 2.95 µM (inactive). For the same compound, the GI50 (ACHN) was 92.9 nM (active), the GI50 (CAKI-1) was 807 nM (active) and the GI50 (COLO 205) was 3.86 µM (inactive). For the same compound, the GI50 (DU-145) was 984 nM (active), the GI50 (EKVX) was 2.45 µM (inactive) and the GI50 (HCC 2998) was 589 nM (active). For the same compound, the GI50 (HCT-116) was 156 nM (active), the GI50 (HCT-15) was 490 nM and the GI50 (HL-60) was < 144 nM (active). The GI50 (HOP-62) was 1.25 µM (inactive), the GI50 (HOP-92) was 238 nM (active) and the GI50 (HT-29) was 586 nM (active). The GI50 (Hs-578T) was 942 nM (active), the GI50 (IGROV-1) was 1.6 µM (inactive) and the GI50 (K562) was 105 nM (active). The GI50 (KM12) was 1.07 µM (active), the GI50 (M14) was 698 nM (active) and the GI50 (MCF7) was 349 nM (active). The GI50 (MDA-MB-231) was 610 nM (active), the GI50 (MDA-MB-435) was 1.53 µM (inactive) and the GI50 (MOLT-4) was 242 nM (active). The GI50 (Malme-3M) was 161 nM (active), the GI50 (NCI-H226) was 1.73 µM (inactive) and the GI50 (NCI-H23) was 211 nM (active). For the same compound, the GI50 (NCI-H460) was 3210 nM (inactive), the GI50 (NCI-H522) was 746 nM (active) and the GI50 (NCI/ADR-RES) was 367 nM (active). The GI50 (OVCAR-3) was 653 nM (active), the GI50 (OVCAR-4) was 2.07 µM (inactive) and the GI50 (OVCAR-5) was 1510 nM (inactive). For the same compound, the GI50 (OVCAR-8) was 634 nM (active), the GI50 (PC-3) was 716 nM (active) and the GI50 (RPMI-8226) was 679 nM (active). The GI50 (RXF 393) was 1000 nM (active), the GI50 (SF-268) was 1320 nM (inactive) and the GI50 (SF-295) was 946 nM (active). For the same compound, the GI50 (SF-539) was 838 nM (active), the GI50 (SK-MEL-28) was 1.26 µM (inactive) and the GI50 (SK-MEL-2) was 1.79 µM (inactive). For the same compound, the GI50 (SK-MEL-5) was 877 nM (active), the GI50 (SK-OV-3) was 5970 nM (inactive) and the GI50 (SNB-19) was 4.05 µM (inactive). For the same compound, the GI50 (SNB-75) was 1950 nM (inactive), the GI50 (SR) was < 10 nM (active) and the GI50 (SW-620) was 499 nM (active). The GI50 (T47D) was 1.79 µM (inactive), the GI50 (TK-10) was 195 nM (active) and the GI50 (U-251) was 377 nM (active). For the same compound, the GI50 (UACC-257) was 1.79 µM (inactive), the GI50 (UACC-62) was 2.22 µM (inactive) and the GI50 (UO-31) was 1.38 µM (inactive).

With CCc1ccc2oc(-c3cc(O)c(-c4nc5cc(CC)ccc5o4)cc3O)nc2c1 the GI50 (786-0) was > 100000 nM (inactive), the GI50 (A498) was > 100 µM (inactive) and the GI50 (A549) was > 100 µM (inactive). The GI50 (ACHN) was > 100000 nM (inactive), the GI50 (CCRF-CEM) was > 100000 nM (inactive) and the GI50 (COLO 205) was > 100 µM (inactive). The GI50 (DU-145) was > 100000 nM (inactive), the GI50 (EKVX) was > 100 µM (inactive) and the GI50 (HCC 2998) was > 100000 nM (inactive). For the same compound, the GI50 (HCT-116) was > 100000 nM (inactive), the GI50 (HCT-15) was > 100000 nM and the GI50 (HL-60) was > 100000 nM (inactive). The GI50 (HOP-62) was > 100 µM (inactive), the GI50 (HOP-92) was > 100000 nM (inactive) and the GI50 (Hs-578T) was > 100000 nM (inactive). The GI50 (IGROV-1) was > 100 µM (inactive), the GI50 (K562) was > 100000 nM (inactive) and the GI50 (LOX IMVI) was > 100000 nM (inactive). The GI50 (M14) was > 100000 nM (inactive), the GI50 (MCF7) was > 100000 nM (inactive) and the GI50 (MDA-MB-231) was > 100000 nM (inactive). The GI50 (MDA-MB-435) was > 100 µM (inactive), the GI50 (MDA-N) was > 100000 nM (inactive) and the GI50 (MOLT-4) was > 100000 nM (inactive). For the same compound, the GI50 (NCI-H226) was > 100 µM (inactive), the GI50 (NCI-H23) was > 100000 nM (inactive) and the GI50 (NCI-H460) was > 100000 nM (inactive). The GI50 (NCI/ADR-RES) was > 100000 nM (inactive), the GI50 (OVCAR-5) was > 100000 nM (inactive) and the GI50 (OVCAR-8) was > 100000 nM (inactive). For the same compound, the GI50 (PC-3) was > 100000 nM (inactive), the GI50 (RPMI-8226) was > 100000 nM (inactive) and the GI50 (SF-268) was > 100000 nM (inactive). For the same compound, the GI50 (SF-539) was > 100000 nM (inactive), the GI50 (SK-MEL-28) was > 100 µM (inactive) and the GI50 (SK-MEL-2) was > 100 µM (inactive). For the same compound, the GI50 (SK-MEL-5) was > 100000 nM (inactive), the GI50 (SK-OV-3) was > 100000 nM (inactive) and the GI50 (SN12C) was > 100 µM (inactive). The GI50 (SNB-19) was > 100 µM (inactive), the GI50 (SNB-75) was 86500 nM (inactive) and the GI50 (SR) was > 100000 nM (inactive). The GI50 (SW-620) was > 100000 nM (inactive), the GI50 (T47D) was > 100 µM (inactive) and the GI50 (TK-10) was > 100000 nM (inactive). The GI50 (U-251) was > 100000 nM (inactive), the GI50 (UACC-62) was > 100 µM (inactive) and the GI50 (UO-31) was > 100 µM (inactive).
